Measured values published in US3985888A, “Methods of inducing sedation using certain spiroalkanone-imides” (Richardson-Merrell Inc., priority 1971, dated 1976).
Entries after “also recorded” stand apart in the source; their conditions may differ. Read-outs that look alike come from different tables or passages of the source.

Tests used:
[1] = test system: mice; assay: spontaneous locomotor activity in the photocell chamber; type: in vivo; details: for ED50: Mus musculus, read-out: Spontaneous Locomotor Activity: Depressant Dose 50% (dose reducing activity to 50 percent of control)
[2] = motor coordination, rotorod method; type: in vivo; details: mouse, mice; for TD50: read-out: Loss of Motor Coordination, ED50; for NOAEL: read-out: dose until which there is no significant impairment of motor coordination (rotorod)
Procedure: There is no significant impairment of motor coordination as determined with the rotorod method (Kinnard, W. J. and Carr, C. J., J. Pharmacol. Exptl. Therap., 121: 354 (1957)), on the other hand, until doses of 900 mg/kg, p.o. or 500-900 mg/kg i.p. have been administered.

[3] = test system: mice; assay: protection against maximal electroshock; type: in vivo; details: Mus musculus, read-out: Anticonvulsant Protective Dose, 50% (Maximum Electroshock)
[4] = test system: mice; assay: prolongation of loss of the righting reflex produced by barbital or hexobarbital; type: in vivo; details: i.p., appropriate doses of barbital or hexobarbital
[5] = acute LD50; details: mouse, in vivo, mice
[6] = sedative / central nervous system depressant properties; type: in vivo; details: in words

For `O=C1CCC2(CCC(=O)c3ccccc32)C(=O)N1` (centres unmarked) [Example 1, 2,3-dihydrospiro-[naphthalene-1(4H),3'-piperidine]-2',4,6'-trione], the ED50 ([1]; ip) was 50 to 60 mg/kg, the ED50 ([1]; po) was 150 mg/kg and the “Spontaneous Locomotor Activity: Depressant Dose 50% (dose reducing activity to 50 percent of control)” value ([1]; i.p.) was 50 to 60 mg/kg. For the same molecule, the TD50 ([2]; ip, i.p.) was 500 to 900 mg/kg, the NOAEL ([2]; ip, i.p.) was 500 to 900 mg/kg and the TD50 ([2]; oral) was 900 mg/kg. The NOAEL ([2]; po, p.o.) was at least 900 mg/kg, the ED50 ([3]; ip) was 160 to 170 mg/kg and the ED50 ([3]; po) was 120 mg/kg. The “dose that significantly prolongs loss of the righting reflex produced by barbital or hexobarbital” value [4] was “about 300 mg/kg”, the LD50 ([5]; ip, intraperitoneally) was over 2000 mg/kg and the LD50 ([5]; po, orally) was over 2000 mg/kg. The “central nervous system depressant properties” value [6] was “central nervous system depressant properties”.
In the case of `CCN1C(=O)CCC2(CCC(=O)c3ccccc32)C1=O` (centres unmarked) [Example 6, 1'-ethyl-2,3-dihydrospiro-[naphthalene-1(4H),3'-piperidine]-2',4,6'-trione], the sedative properties [6] is reported as “has sedative properties”.
For `COc1ccc2c(c1)C(=O)CCC21CCC(=O)N(C)C1=O` (centres unmarked) [Example 8, 2,3-dihydro-6-methoxy-1'-methylspiro[naphthalene-1(4H),3'-piperidine]-2',4,6'-trione], the sedative properties [6] was “has sedative properties”.
With `Cc1ccc2c(c1)C(=O)CCC21CCC(=O)NC1=O` (centres unmarked) [Example 9, 2,3-dihydro-6-methylspiro[naphthalene-1(4H),3'-piperidine]-2',4,6'-trione] the sedative properties [6] was “has sedative properties”.
In the case of `Cc1ccc2c(c1)C(=O)CCC21CCC(=O)N(C)C1=O` (centres unmarked) [Example 10, 1',6-dimethyl-2,3-dihydrospiro-[naphthalene-1(4H),3'-piperidine]-2',4,6'-trione], the sedative properties [6] is reported as “has sedative properties”.
For `COc1cc2c(cc1OC)C1(CCC(=O)NC1=O)CCC2=O` (centres unmarked) [Example 11, 2,3-dihydro-6,7-dimethoxyspiro-[naphthalene-1(4H),3'-piperidine]-2',4,6'-trione], the sedative properties [6] was “has sedative properties”.
With `COc1cc2c(cc1OC)C1(CCC2=O)CCC(=O)N(C)C1=O` (centres unmarked) [Example 12, 2,3-dihydro-6,7-dimethoxy-1'-methylspiro-[naphthalene-1(4H),3'-piperidine]-2',4,6'-trione] the sedative properties [6] was “has sedative properties”.
For `O=C1CCC2(CC(=O)c3ccccc32)C(=O)N1` (centres unmarked) [Example 13, spiro-[indane-1,3'-piperidine]-2,3,6'-trione], the sedative properties [6] was “has sedative properties”.
For `O=C1CC2(CCC(=O)c3ccccc32)C(=O)N1` (centres unmarked) [Example 14, 2,3-dihydrospiro[naphthalene-1(4H),3'-pyrrolidine]-2',4,5'-trione], the sedative properties [6] was “has sedative properties”.
In the case of `Cc1cccc2c1C1(CCC(=O)NC1=O)CCC2=O` (centres unmarked) [Example 15, 2,3-dihydro-8-methylspiro-[naphthalene-1(4H),3'-piperidine]-2',4,6' -trione], the sedative properties [6] is reported as “has sedative properties”.
For `Cc1cccc2c1C1(CCC2=O)CCC(=O)N(C)C1=O` (centres unmarked) [Example 16, 2,3-dihydro-1',8-dimethylspiro-[naphthalene-1(4H),3'-piperidine]-2',4,6'-trione], the sedative properties [6] was “has sedative properties”.
With `O=C1CCC2(CCC(=O)c3cc(Cl)ccc32)C(=O)N1` (centres unmarked) [Example 17, 6-chloro-2,3-dihydrospiro[naphthalene-1(4H),3'-piperidine]-2',4,6'-trione] the sedative properties [6] was “has sedative properties”.
In the case of `CN1C(=O)CCC2(CCC(=O)c3cc(Cl)ccc32)C1=O` (centres unmarked) [Example 18, 6-chloro-2,3-dihydro-1'-methylspiro[naphthalene-1(4H),3'-piperidine]-2',4,6'-trione], the ED50 ([1]; po) is reported as 13 mg/kg, the “activity compared with the known compound (Example 1)” value ([1]; in words, as shown in the table) is reported as “substantially greater activity” and the TD50 ([2]; oral) is reported as 285 mg/kg. For the same molecule, the sedative properties [6] was “has sedative properties; also recorded: particularly useful as a sedative”.
For `O=C1CCC2(CCC(=O)c3cc([N+](=O)[O-])ccc32)C(=O)N1` (centres unmarked) [Example 19, 2,3-dihydro-6-nitrospiro-[naphthalene-1(4H),3'-piperidine]-2',4,6'-trione], the sedative properties [6] was “has sedative properties”.
